Test results from US20140079836A1, “METHODS AND COMPOSITIONS FOR ALTERING HEALTH, WELLBEING, AND LIFESPAN” (LifeSpan Extension, LLC, priority 2008, published 2014).

System: genes involved in longevity (Array 1)
Assay: Custom RT-PCR microarray (Array 1) gene expression in skin fibroblasts, UVB/UVA1
Format: cell-based, human
Details: for RTC gene expression fold change / PPC gene expression fold change: control well
Description: Seeding of cells: On Day 1, each cell culture was seeded into 6 well cluster dishes at ˜1.5×10^5 cells in 4 mls medium per well. Three wells were seeded per test condition or control.
Experimental phase: On Day 3, wells were washed 1× with 2 mls medium, fed back 2 mls medium without fetal bovine serum and preincubated for 30-60 minutes before challenge with test or control conditions. After the preincubation, medium was aspirated from the wells and 2.5 mls of test or control condition in medium with 1% fetal bovine serum was pipetted into the appropriate wells.
(3) UVA1, UVB exposed and unexposed cells without test condition were used as controls. The experimental phase ended at 24 hours post UV exposure. Cells from each test and control parameter were then prepped for RNA isolation as described below.
UVB/UVA1 exposure: Cells exposed to UV received 200 mJ/cm^2 UVB/1 MED UVA1 using Thermo Oriel solar simulator model SP66923-3056. Cells were exposed from the bottom of the culture dish. The UV dose delivered to the cells was adjusted for interference from the plastic in the culture dish.
Preparation of RNA: The RNA was isolated using the Qiagen RNEasy Plus Mini Kit according to the manufacturer's protocol which can be found on the World Wilde Web at qiagen.com/literature/Defaultaspx?Term=&Language=EN&LiteratureType=4& ProductCategory=10162. The RNA was quantified and examined for purity using the 260/280 nm read method in a μ Quant spectrophotometer before use in the array.
Creation and Performance of a Custom Microarray (“Array 1”): Through the Custom Array design service of Superarray Bioscience Corporation, a 96 well RT-PCR microarray (“Array 1”) was developed to illustrate genetic responses in cells treated as above for specific genes involved in longevity as well as the relevant quality controls. The array was performed in compliance with manufacturer's guidelines and by recommended manufacturer's protocol as can be found on the World Wilde Web at superarray.com/Manual/perarrayplate.pdf
(§1) Custom Microarray Results: The results from the microarrays were determined using the delta CT method which uses comparisons of control genes and threshold cycles of genes of interest to generate relative expression values. The full set of experimental conditions was cross referenced and the data is provided herewith in DATA TABLE 3.
Preparation of RNA: The RNA was isolated using the Qiagen RNEasy Plus Mini Kit according to the manufacturer's protocol which can be found on the World Wide Web at qiagen.com/literature/Default. aspx?Term=&Language=EN&LiteratureType=4&ProductCategory=10162.
The RNA was quantified and examined for purity using the 260/280 nm read method in a μ Quant spectrophotometer before use in the array.
Creation and Performance of the Custom Microarray: Through the Custom Array design service of Superarray Bioscience Corporation, a 96 well RT-PCR Microarray was developed to illustrate genetic responses in cells treated as above for specific genes involved in longevity as well as the relevant quality controls. The array was performed in compliance with manufacturer's guidelines and by recommended manufacturer's protocol as can be found on the World Wide Web at superarray.com/Manual/perarrayplate.pdf.
as §1, with “4.” for “3.”
as §1, with “5. […]” for “3.”

[1] = donor three vs. donor two idebenone + UVB Continuous Incubation
[2] = donor two idebenone + UVB 4 hr Incubation
[3] = donor two idebenone + UVB Continuous Incubation
[4] = donor two idebenone + UVB vs. Green tea + UVB 4 hr Incubation
[5] = donor two idebenone + UVB vs. Green tea + UVB Continuous Incubation

Compound: COC1=C(OC)C(=O)C(CCCCCCCCCCO)=C(C)C1=O [Idebenone, 6-(10-hydroxydecyl)-2,3-dimethoxy-5-methyl-1,4-benzoquin-one]
- HSPA1A expression fold change [1]: 2.28
- HSPA1B expression fold change [1]: 2.62
- HSPA1L expression fold change [1]: 1.61
- IFI44 expression fold change [1]: −1.43
- IGF1 expression fold change [1]: −1.08
- IGF2 expression fold change [1]: −1.16
- IL1A expression fold change [1]: 2.20
- IL6 expression fold change [1]: 3.97
- IL10 expression fold change [1]: 1.14
- KRAS expression fold change [1]: 1.18
- MAPK14 expression fold change [1]: 1.03
- NADSYN1 expression fold change [1]: 2.28
- NFKB1 expression fold change [1]: 1.56
- NOS2A expression fold change [1]: 1.56
- PARP1 expression fold change [1]: 2.05
- PARP2 expression fold change [1]: −1.48
- PPARG expression fold change [1]: −1.76
- PTGS2 expression fold change [1]: 2.44
- SHC1 expression fold change [1]: 1.67
- SIRT1 expression fold change [1]: −1.04
- SOD1 expression fold change [1]: 2.44
- SOD2 expression fold change [1]: −1.38
- TEP1 expression fold change [1]: 1.31
- TERT expression fold change [1]: 2.13
- TNF expression fold change [1]: 1.40
- TP53 expression fold change [1]: −1.04
- ACE expression fold change [2]: 1.22
- ACTB expression fold change [2]: −1.01
- APOE expression fold change [2]: 1.03
- BAX expression fold change [2]: 1.40
- BCL2 expression fold change [2]: 1.40
- CASP2 expression fold change [2]: −1.53
- CASP9 expression fold change [2]: 1.27
- CCL4L1 expression fold change [2]: 1.06
- CLK1 expression fold change [2]: −1.24
- COX1 expression fold change [2]: 1.14
- CREBBP expression fold change [2]: 1.10
- CYP19A1 expression fold change [2]: 1.40
- DDC expression fold change [2]: 1.45
- GAPDH expression fold change [2]: −1.95
- GH1 expression fold change [2]: −1.04
- HIGX1A fold change [2]: −1.42
- HLA-DRA expression fold change [2]: 1.22
- HPRT1 expression fold change [2]: 1.03
- HSPA1A expression fold change [2]: 1.06
- HSPA1B expression fold change [2]: 1.56
- HSPA1L expression fold change [2]: 1.40
- IFI44 expression fold change [2]: 2.20
- IGF1 expression fold change [2]: −1.47
- IGF2 expression fold change [2]: 1.06
- IL1A expression fold change [2]: −2.16
- IL6 expression fold change [2]: −11.39
- IL10 expression fold change [2]: 1.14
- KRAS expression fold change [2]: 1.73
- MAPK14 expression fold change [2]: 1.27
- NADSYN1 expression fold change [2]: −1.08
- NFKB1 expression fold change [2]: 2.20
- NOS2A expression fold change [2]: 1.61
- PARP1 expression fold change [2]: 1.92
- PARP2 expression fold change [2]: 1.22
- PPARG expression fold change [2]: 1.18
- PTGS2 expression fold change [2]: 1.61
- SHC1 expression fold change [2]: 2.06
- SIRT1 expression fold change [2]: 1.18
- SOD1 expression fold change [2]: −1.08
- SOD2 expression fold change [2]: 1.27
- TEP1 expression fold change [2]: 1.31
- TERT expression fold change [2]: −1.38
- TNF expression fold change [2]: −1.20
- TP53 expression fold change [2]: −1.64
- ACE expression fold change [3]: 1.92
- ACTB expression fold change [3]: 1.31
- APOE expression fold change [3]: 1.18
- BAX expression fold change [3]: −1.04
- BCL2 expression fold change [3]: 3.83
- CASP2 expression fold change [3]: 1.14
- CASP9 expression fold change [3]: 2.13
- CCL4L1 expression fold change [3]: 1.40
- CLK1 expression fold change [3]: 1.85
- COX1 expression fold change [3]: −1.43
- CREBBP expression fold change [3]: 1.18
- CYP19A1 expression fold change [3]: 1.31
- DDC expression fold change [3]: 1.85
- GAPDH expression fold change [3]: −1.38
- GH1 expression fold change [3]: 3.01
- HIGX1A fold change [3]: 1.22
- HLA-DRA expression fold change [3]: 2.44
- HPRT1 expression fold change [3]: 5.23
- HSPA1A expression fold change [3]: 1.50
- HSPA1B expression fold change [3]: 3.70
- HSPA1L expression fold change [3]: −2.48
- IFI44 expression fold change [3]: 1.56
- IGF1 expression fold change [3]: 3.45
- IGF2 expression fold change [3]: −1.12
- IL1A expression fold change [3]: 3.57
- IL6 expression fold change [3]: 3.01
- IL10 expression fold change [3]: 2.05
- KRAS expression fold change [3]: 2.13
- MAPK14 expression fold change [3]: 2.44
- NADSYN1 expression fold change [3]: 1.56
- NFKB1 expression fold change [3]: 3.70
- NOS2A expression fold change [3]: 1.98
- PARP1 expression fold change [3]: 1.67
- PARP2 expression fold change [3]: 2.53
- PPARG expression fold change [3]: 3.22
- PTGS2 expression fold change [3]: 2.71
- SHC1 expression fold change [3]: 1.92
- SIRT1 expression fold change [3]: 1.98
- SOD1 expression fold change [3]: 1.10
- SOD2 expression fold change [3]: 1.03
- TEP1 expression fold change [3]: 1.79
- TERT expression fold change [3]: 8.50
- TNF expression fold change [3]: 1.50
- TP53 expression fold change [3]: 1.67
- ACE expression fold change [4]: 1.32
- ACTB expression fold change [4]: −3.03
- APOE expression fold change [4]: 1.04
- BAX expression fold change [4]: 1.11
- BCL2 expression fold change [4]: 1.19
- CASP2 expression fold change [4]: −1.23
- CASP9 expression fold change [4]: 1.15
- CCL4L1 expression fold change [4]: 10.95
- CLK1 expression fold change [4]: −1.11
- COX1 expression fold change [4]: −1.19
- CREBBP expression fold change [4]: 1.11
- CYP19A1 expression fold change [4]: 11.33
- DDC expression fold change [4]: 14.95
- GAPDH expression fold change [4]: −2.92
- GH1 expression fold change [4]: 8.30
- HIGX1A fold change [4]: 8.30
- HLA-DRA expression fold change [4]: 16.03
- HPRT1 expression fold change [4]: 1.04
- HSPA1A expression fold change [4]: 1.32
- HSPA1B expression fold change [4]: 2.64
- HSPA1L expression fold change [4]: 1.87
- IFI44 expression fold change [4]: 2.15
- IGF1 expression fold change [4]: 4.77
- IGF2 expression fold change [4]: 1.00
- IL1A expression fold change [4]: 1.28
- IL6 expression fold change [4]: −9.83
- IL10 expression fold change [4]: 4.29
- KRAS expression fold change [4]: −1.11
- MAPK14 expression fold change [4]: 1.32
- NADSYN1 expression fold change [4]: −1.19
- NFKB1 expression fold change [4]: −1.03
- NOS2A expression fold change [4]: 17.18
- PARP1 expression fold change [4]: 1.52
- PARP2 expression fold change [4]: 5.87
- PPARG expression fold change [4]: 2.74
- PTGS2 expression fold change [4]: 2.22
- SHC1 expression fold change [4]: 1.11
- SIRT1 expression fold change [4]: 1.63
- SOD1 expression fold change [4]: 1.52
- SOD2 expression fold change [4]: −1.32
- TEP1 expression fold change [4]: 2.55
- TERT expression fold change [4]: 3.37
- TNF expression fold change [4]: 6.98
- TP53 expression fold change [4]: −1.51
- ACE gene expression fold change [5]: 1.33
- ACTB gene expression fold change [5]: −1.67
- APOE gene expression fold change [5]: 1.16
- BAX gene expression fold change [5]: −1.45
- BCL2 gene expression fold change [5]: −1.10
- CASP2 gene expression fold change [5]: −1.79
- CASP9 gene expression fold change [5]: 1.58
- CCL4L1 gene expression fold change [5]: 4.97
- CLK1 gene expression fold change [5]: 1.01
- COX1 gene expression fold change [5]: −2.53
- CREBBP gene expression fold change [5]: −1.10
- CYP19A1 gene expression fold change [5]: 8.07
- DDC gene expression fold change [5]: 24.46
- GAPDH gene expression fold change [5]: −1.10
- GH1 gene expression fold change [5]: 25.33
- HIGX1A gene expression fold change [5]: 6.12
- HLA-DRA gene expression fold change [5]: 58.18
- HPRT1 gene expression fold change [5]: 2.40
- HSPA1A gene expression fold change [5]: 1.12
- HSPA1B gene expression fold change [5]: 1.16
- HSPA1L gene expression fold change [5]: −1.61
- IFI44 gene expression fold change [5]: 1.29
- IGF1 gene expression fold change [5]: 6.12
- IGF2 gene expression fold change [5]: −1.14
- IL1A gene expression fold change [5]: 10.65
- IL6 gene expression fold change [5]: 1.04
- IL10 gene expression fold change [5]: 4.32
- KRAS gene expression fold change [5]: 1.53
- MAPK14 gene expression fold change [5]: 1.64
- NADSYN1 gene expression fold change [5]: 1.12
- NFKB1 gene expression fold change [5]: 2.24
- NOS2A gene expression fold change [5]: 15.06
- PARP1 gene expression fold change [5]: −1.98
- PARP2 gene expression fold change [5]: 4.48
- PPARG gene expression fold change [5]: 2.16
- PTGS2 gene expression fold change [5]: −1.06
- SHC1 gene expression fold change [5]: 1.48
- SIRT1 gene expression fold change [5]: 1.88
- SOD1 gene expression fold change [5]: −1.56
- SOD2 gene expression fold change [5]: 1.33
- TEP1 gene expression fold change [5]: 1.12
- TERT gene expression fold change [5]: 7.53
- TNF gene expression fold change [5]: 10.29
- TP53 gene expression fold change [5]: 1.88
- RTC gene expression fold change (donor two idebenone + UVB vs. Green tea + UVB Continuous Incubation, entry r283): 1.08
- PPC gene expression fold change (donor two idebenone + UVB vs. Green tea + UVB Continuous Incubation, entry r289): −1.67
- RTC gene expression fold change (donor two idebenone + UVB vs. Green tea + UVB Continuous Incubation, entry r293): 2.09
- PPC gene expression fold change (donor two idebenone + UVB vs. Green tea + UVB Continuous Incubation, entry r295): −1.35
